Reference: publication PMC9516332 (Frontiers in Oncology, 2022)
Where two headings read alike, the source gives them in different places.

System: 134 cancer cell lines
Assay: Cell viability assay (ATPlite, 72 hours), IC50 on cancer cell line panel

C[C@@H](Oc1cc(-c2cnn(C3CCNCC3)c2)cnc1N)c1c(Cl)ccc(F)c1Cl [crizotinib]
IC50 (Homo sapiens, LS174T, read-out: IC50 in cell proliferation assay): 1.51 µM | IC50 (Homo sapiens, LS-411N, read-out: IC50 in cell proliferation assay): 2.45 µM | IC50 (Homo sapiens, LoVo, read-out: IC50 in cell proliferation assay): 1.4 µM | IC50 (Homo sapiens, MCF7, read-out: IC50 in cell proliferation assay): 3.76 µM | IC50 (Homo sapiens, MDA-MB-231, read-out: IC50 in cell proliferation assay): 2.4 µM | IC50 (Homo sapiens, MDA-MB-453, read-out: IC50 in cell proliferation assay): 7.67 µM | IC50 (Homo sapiens, MDA-MB-468, read-out: IC50 in cell proliferation assay): 2.37 µM | IC50 (Homo sapiens, MG-63, read-out: IC50 in cell proliferation assay): 2.62 µM | IC50 (Homo sapiens, MIA PaCa-2, read-out: IC50 in cell proliferation assay): 1.61 µM | IC50 (Homo sapiens, MKN-45, read-out: IC50 in cell proliferation assay): 0.062 µM | IC50 (Homo sapiens, MOLM-13, read-out: IC50 in cell proliferation assay): 0.444 µM | IC50 (Homo sapiens, MOLT-4, read-out: IC50 in cell proliferation assay): 0.641 µM | IC50 (Homo sapiens, MV4-11, read-out: IC50 in cell proliferation assay): 0.829 µM | IC50 (Homo sapiens, MeWo, read-out: IC50 in cell proliferation assay): 3.6 µM | IC50 (Homo sapiens, NCCIT, read-out: IC50 in cell proliferation assay): 1.47 µM | IC50 (Homo sapiens, NCI-H82, read-out: IC50 in cell proliferation assay): 1.59 µM | IC50 (Homo sapiens, NCI-H460, read-out: IC50 in cell proliferation assay): 2.5 µM | IC50 (Homo sapiens, NCI-H661, read-out: IC50 in cell proliferation assay): 6.62 µM | IC50 (Homo sapiens, NCI-H716, read-out: IC50 in cell proliferation assay): 1.6 µM | IC50 (Homo sapiens, NCI-H1650, read-out: IC50 in cell proliferation assay): 3.7 µM | IC50 (Homo sapiens, NCI-H1975, read-out: IC50 in cell proliferation assay): 3.38 µM | IC50 (Homo sapiens, NCI-H2228, read-out: IC50 in cell proliferation assay): 0.082 µM | IC50 (Homo sapiens, OVCAR-3, read-out: IC50 in cell proliferation assay): 7.28 µM | IC50 (Homo sapiens, PFSK-1, read-out: IC50 in cell proliferation assay): 2.16 µM | IC50 (Homo sapiens, RL95-2, read-out: IC50 in cell proliferation assay): 1.27 µM | IC50 (Homo sapiens, RPMI-7951, read-out: IC50 in cell proliferation assay): 2.09 µM | IC50 (Homo sapiens, RS4-11, read-out: IC50 in cell proliferation assay): 0.783 µM | IC50 (Homo sapiens, Rec1, read-out: IC50 in cell proliferation assay): 3.5 µM | IC50 (Homo sapiens, SHP77, read-out: IC50 in cell proliferation assay): 3.38 µM | IC50 (Homo sapiens, SK-BR-3, read-out: IC50 in cell proliferation assay): 8.76 µM | IC50 (Homo sapiens, SK-N-AS, read-out: IC50 in cell proliferation assay): 1.84 µM | IC50 (Homo sapiens, SK-N-FI, read-out: IC50 in cell proliferation assay): 2.17 µM | IC50 (Homo sapiens, SK-N-MC, read-out: IC50 in cell proliferation assay): 1.05 µM | IC50 (Homo sapiens, SK-N-SH, read-out: IC50 in cell proliferation assay): 0.843 µM | IC50 (Homo sapiens, SNU-5, read-out: IC50 in cell proliferation assay): 0.011 µM | IC50 (Homo sapiens, SNU-16, read-out: IC50 in cell proliferation assay): 1.92 µM | IC50 (Homo sapiens, SNU-C2B, read-out: IC50 in cell proliferation assay): 4.8 µM | IC50 (Homo sapiens, SU-DHL-1, read-out: IC50 in cell proliferation assay): 0.182 µM | IC50 (Homo sapiens, SU-DHL-6, read-out: IC50 in cell proliferation assay): 2.19 µM | IC50 (Homo sapiens, SUP-T1, read-out: IC50 in cell proliferation assay): 1.74 µM | IC50 (Homo sapiens, SW48, read-out: IC50 in cell proliferation assay): 1.02 µM | IC50 (Homo sapiens, SW480, read-out: IC50 in cell proliferation assay): 2.66 µM | IC50 (Homo sapiens, SW626, read-out: IC50 in cell proliferation assay): 2.95 µM | IC50 (Homo sapiens, SW780, read-out: IC50 in cell proliferation assay): 3.85 µM | IC50 (Homo sapiens, SW837, read-out: IC50 in cell proliferation assay): 4.01 µM | IC50 (Homo sapiens, SW872, read-out: IC50 in cell proliferation assay): 2.23 µM | IC50 (Homo sapiens, SW948, read-out: IC50 in cell proliferation assay): 2.66 µM | IC50 (Homo sapiens, SW982, read-out: IC50 in cell proliferation assay): 1.45 µM | IC50 (Homo sapiens, SW-620, read-out: IC50 in cell proliferation assay): 1.37 µM | IC50 (Homo sapiens, T98G, read-out: IC50 in cell proliferation assay): 3.74 µM | IC50 (Homo sapiens, TCC-SUP, read-out: IC50 in cell proliferation assay): 3.54 µM | IC50 (Homo sapiens, THP-1, read-out: IC50 in cell proliferation assay): 4.96 µM | IC50 (Homo sapiens, U2OS, read-out: IC50 in cell proliferation assay): 3.45 µM | IC50 (Homo sapiens, U-87 MG, read-out: IC50 in cell proliferation assay): 0.222 µM | IC50 (Homo sapiens, U-118-MG, read-out: IC50 in cell proliferation assay): 3.97 µM | IC50 (Homo sapiens, UMUC3, read-out: IC50 in cell proliferation assay): 2.77 µM | IC50 (Hs766T, read-out: IC50 in cell proliferation assay): 3.6 µM | IC50 (L-82, read-out: IC50 in cell proliferation assay): 0.047 µM | IC50 (Rh30, read-out: IC50 in cell proliferation assay): 1.57 µM
